These results are taken from patent US10017767B2, “Targets in multiple myeloma and other disorders” (FONDAZIONE CENTRO SAN RAFFAELE, priority 2012, dated 2018).

One data set deals with YAP1. As to the kind of experiment: YAP1 levels in MM cells after treatment. The data set is classed as cell-based. As for the experimental part: MM cells were harvested and lysed using lysis buffer: 50 mMTris-HCl (pH 7.4), 150 mM NaCl, 1% NP-40, 5 mM EDTA, 5 mM NaF, 2 mM Na3VO4, 1 mM PMSF, 5 μg/mL leupeptine, and 5 μg/mL aprotinin. Nuclear extracts were prepared using Nuclear Extraction Kit (Panomics). Cell lysates were subjected to sodium dodecyl sulfate-polyacrylamide gel electrophoresis SDS-PAGE, transferred to nitrocellulose membranes, and immunoblotted with different antibodies: ATM, phospho-ATM (Ser1981), ATR, phospho-ATR (Ser428), CHK2, phospho-CHK2 (Thr68), CHK1, phospho-CHK1 (Ser296), p21, p53, phospho-p53 (ser127), STK4, LATS1, phospho-LATS1 (Ser909), phospho-ABL1 (Thr735), cleaved caspase 3, cleaved PARP, histone H3, SAPK/JNK, phospho-SAPK/JNK (Thr183/Tyr185), GM130, GAPDH, and α-tubulin (Cell Signaling); STK4, Nuclear Matrix Protein p84 (Abeam), p73 (BD), phospho-H2A.X (Ser139) (Millipore); as well as ABL1, BAX, Puma, Noxa, actin and nucleolin (Santa Cruz Biotechnology).

The test system of data set [1] is ALL (Jurkat) and AML (OCI/AML3) cell lines. As to the kind of experiment: YAP1 levels, cell number and apoptosis in ALL and AML cell lines. It counts as cell-based.
A further data set relates to MM cell lines. The data set can be described thus: Cell growth in a large panel of MM cell lines. It counts as cell-based.
The target in a further data set is T1, STK4 (Homo sapiens, UniProt Q13043).
T1 sequence (Q13043 1-487): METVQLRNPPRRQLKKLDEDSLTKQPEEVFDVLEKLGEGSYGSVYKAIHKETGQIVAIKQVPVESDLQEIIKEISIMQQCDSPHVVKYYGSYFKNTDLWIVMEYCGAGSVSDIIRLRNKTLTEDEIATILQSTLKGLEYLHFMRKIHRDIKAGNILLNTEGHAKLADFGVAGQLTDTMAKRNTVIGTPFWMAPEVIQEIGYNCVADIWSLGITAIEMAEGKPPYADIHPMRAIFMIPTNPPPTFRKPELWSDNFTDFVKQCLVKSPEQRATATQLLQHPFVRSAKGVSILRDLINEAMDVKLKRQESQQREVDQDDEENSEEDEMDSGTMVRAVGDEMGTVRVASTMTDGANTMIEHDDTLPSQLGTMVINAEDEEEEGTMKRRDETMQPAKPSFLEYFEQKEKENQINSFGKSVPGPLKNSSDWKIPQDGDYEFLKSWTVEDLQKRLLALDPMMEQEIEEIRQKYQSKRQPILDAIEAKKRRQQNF
As to the kind of experiment: STK4 biochemical kinase inhibition.

For data set [2], the system named is KMS-20 cell line, with YAP1 deletion. The data set can be described thus: Cell growth in YAP1-deleted KMS-20. The data set is classed as cell-based. The settings on record: KMS-20, YAP1 deleted.
A further data set concerns RL. The data set can be described thus: MTT / Annexin V-PI, RL. The data set is classed as cell-based. The settings on record: no nuclear ABL1.
For data set [3], the system named is leukemia and lymphoma cell lines. As to the kind of experiment: MTT growth inhibition and Annexin V-PI apoptosis in a leukemia and lymphoma cell line panel. The data set is classed as cell-based. The settings on record: cell lines where the DNA damage-ABL1-YAP1 axis was activated.
The subject of the next data set is HL-60. As to the kind of experiment: MTT / Annexin V-PI, HL-60. It counts as cell-based. The settings on record: HL-60, YAP1 basal expression.
The test system of the next data set is U266 MM cell line. The data set can be described thus: Apoptosis by Annexin V-FITC/PI staining, U266. The data set is classed as cell-based. The settings on record: 10 μM, untreated 10%. The procedure:
(§1) In particular, cells were washed twice with room-temperature PBS, resuspended in 100 μL of Annexin binding buffer, and stained with specific antibodies for 20 minutes.

The test system of a further data set is MM.1S cells. The data set can be described thus: Apoptosis by Annexin V-FITC/PI staining, MM.1S. It counts as cell-based, human. The settings on record: 10 μM, untreated 11%. As for the experimental part:
as §1

Data set [4] in a line: MTT viability assay, U266. It counts as cell-based. The settings on record: human, U266 multiple myeloma cells, 10 μM. As for the experimental part:
Viability of MM cells was evaluated by 3-[4,5-dimethylthiazol-2-yl]-2,5-diphenyltetrazolium bromide (MTT) colorimetric survival assay. MM cells (20,000-50,000) were plated in 100 μL medium. At the various time points (24-96 hours), 10 μL 5 mg/mL MTT were added to plated cells. After 4 hour incubation at 37° C., medium was discarded and 100 μL MTT stop solution (Isopropanonol with […] Hcl) used to dissolve MTT metabolic products. Absorbance was read at 570 nm and background was subtracted at 630 nm, using spectrophotometer SPECTRAMAX M2 machine and Softmax Pro v5 software. Cellular growth was estimated by cell counting in triplicates, excluding dead cells stained by trypan blue.
In general terms: Tetrazolium assays rely on reduction of a dye to a coloured formazan, in cell work by metabolically active cells.

Usually IC50 stands for the midpoint of a concentration-inhibition curve. For the compound `NS(=O)(=O)c1ccc(N/N=C2\C(=O)Nc3ccc4ncccc4c32)cc1` [GW305178X], the “YAP1 levels after treatment” value in the data set with YAP1 (MM cells) is reported as “robust increase in YAP1 levels”. Moreover, the “YAP1 levels, cell number and apoptosis” value in data set [1] was “increased YAP1 levels, reduced cell number, and enhanced apoptosis”. Besides, the “effect on cell growth / proliferation in MM cell lines” value in the data set on MM cell lines was “reduced proliferation in most cell lines with low YAP1 levels”. For the same compound, on STK4, the IC50 was 12 nM. The “activity against KMS-20” value in data set [2] was “not active”.

A word on the viability: it is the share of living cells, or the viability signal relative to a control. Turning to `COc1cc(Nc2c(C#N)cnc3cc(OCCCN4CCN(C)CC4)c(OC)cc23)c(Cl)cc1Cl` [SKI-606], the response to treatment result in the data set with RL and with HL-60 was “did not respond to the treatment” throughout. Further, in data set [3], the “cellular proliferation and survival” value is “profoundly reduced”. Besides, the “YAP1 expression after treatment” value with YAP1 (MM.1S and U266, 10 μM) is on record as “significant increase of YAP1 expression”. Further, the “apoptosis (Annexin V-PI)” value with U266 MM cell line is recorded as 58%. Also, in the data set on MM.1S cells, the “apoptosis (Annexin V-FITC/PI)” value came to 76%. Further, in [4] (24 h, read-out: 24 hour viability (MTT, normalized to DMSO)), the viability at 24 h, 10 µM worked out at 93.8%. For the same compound, in data set [4] (48 h, read-out: 48 hour viability (MTT, normalized to DMSO)), the viability at 48 h, 10 µM turned out to be 76.1%. For the same compound, the viability at 72 h, 10 µM in data set [4] (72 h, read-out: 72 hour viability (MTT, normalized to DMSO)) came out at 53.8%. Besides, the viability at 96 h, 10 µM in data set [4] (96 h, read-out: 96 hour viability (MTT, normalized to DMSO)) was determined as 28.5%.
